Literature values, collected in patent US20220265666A1, “METHODS OF TREATING SUBSTANCE ABUSE DISORDER, DYSPNEA, TINNITUS, AND CHILD AND ADOLESCENT DEPRESSION” (Praxis Precision Medicines, Inc., priority 2019, published 2022).
Like-named read-outs stand apart in the source and are kept apart here.

Experiments:
craving to cocaine = conditions: clinical studies
symptoms of tinnitus = conditions: clinical studies
[1] = system: patients with well controlled asthma
tinnitus behavior = conditions: non-clinical models of tinnitus
[2] = second day, same patients, previous inhalation with diazepam
[3] = first day of testing, methacholine inhalation 6 mg/mL, no diazepam, 12 patients

## CC(=O)[C@H]1CC[C@H]2[C@@H]3CCC4=CC(=O)CC[C@]4(C)[C@H]3CC[C@]12C [Progesterone]
Craving to cocaine
  effect on craving to cocaine: decrease craving to cocaine

## O=C1CN=C(c2ccccc2Cl)c2cc([N+](=O)[O-])ccc2N1 [clonazepam]
Symptoms of tinnitus
  effect on symptoms of tinnitus: control some symptoms of tinnitus

## CN1C(=O)CN=C(c2ccccc2)c2cc(Cl)ccc21 [diazepam]
[1]; diazepam aerosol, 12 patients with well controlled asthma
  effect on bronchoconstriction induced by methacholine: reduced the bronchoconstriction induced by methacholine
[1]; [2]
  FEV1 after methacholine inhalation: 2.21 L
  FEV1 before methacholine inhalation: 2.48 L

## CNC1(c2ccccc2Cl)CCCCC1=O (stereo not drawn) [ketamine]
Tinnitus behavior
  effect on tinnitus behavior: not those that reduce excitation (i.e., ketamine) reverse the tinnitus behavior

## CC(=O)OC(C)C[N+](C)(C)C (stereo not drawn) [methacholine]
[1]; [3]
  FEV1 after methacholine inhalation: 1.69 L
  FEV1 before methacholine inhalation: 2.98 L

## C=CC(N)CCC(=O)O (stereo not drawn) [vigabatrin]
Tinnitus behavior
  effect on tinnitus behavior: reverse the tinnitus behavior
